Data as given in patent US10280159B2 (AbbVie Deutschland GmbH & Co. KG, priority 2015, dated 2019).

Legend:
Assay type in all cases: cell-based
human S1PR4 = molecular target: T1, human S1PR4 (Homo sapiens, UniProt O95977); assay: Intracellular Ca2+ release (FLIPR) agonist potency, S1P4; settings: recombinant CHO-K1 cells expressing human S1PR4, aequorin, Gq/i5; Calcium 5 FLIPR; read-out: S1P4 EC50
T1 construct: host or cells: CHO-K1
T1 sequence (O95977 1-384): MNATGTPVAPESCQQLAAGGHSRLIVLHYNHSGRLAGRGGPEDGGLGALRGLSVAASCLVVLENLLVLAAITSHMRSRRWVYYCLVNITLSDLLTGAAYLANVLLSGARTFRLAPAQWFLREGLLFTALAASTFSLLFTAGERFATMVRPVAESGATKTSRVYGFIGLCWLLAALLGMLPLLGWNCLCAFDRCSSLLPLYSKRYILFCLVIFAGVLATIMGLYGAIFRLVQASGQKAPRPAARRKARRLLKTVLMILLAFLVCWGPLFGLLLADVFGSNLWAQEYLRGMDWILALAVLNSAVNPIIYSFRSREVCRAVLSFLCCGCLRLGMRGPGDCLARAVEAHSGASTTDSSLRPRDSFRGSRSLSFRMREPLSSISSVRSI
Outline: (§1)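 CHO-K1/receptor/aequorin/Gq/i5 cells, F-12 Ham + 10% FBS. Ca2+ release read on FLIPR Tetra. EC50 by nonlinear fit after normalizing to phospho-fingolimod reference curve.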

human S1PR3 = molecular target: T2, human S1PR3 (Homo sapiens, UniProt Q99500); assay: Intracellular Ca2+ release (FLIPR) agonist potency, S1P3; settings: recombinant CHO-K1 cells expressing human S1PR3, aequorin, Gq/i5; Calcium 5 FLIPR; read-out: S1P3 EC50
T2 construct: host or cells: CHO-K1
Experimental: Agonistic activity was measured using the method described below.
Intracellular Ca^2+ Release
Agonist potency and intrinsic activity was assessed by measurement of intracellular Ca^2+ release. Recombinant CHO-K1 cells (Euroscreen, Brussels, Belgium) expressing human S1PR5, S1PR1, S1PR3 or S1PR4 receptors, aequorin, and GTP binding protein Gq/i5 were cultured using a medium containing nutrient mixture F-12 Ham (Sigma-Aldrich) with 10% FBS, and 100 μg/mL gentamicin and equilibrated at 5% CO2.
Phospho-fingolimod was used as positive control. Antagonists were pre-incubated for 10 min with cells before addition of the agonist (phospho-fingolimod at EC80). Measurements were performed using a fluorometric imaging plate reader FLIPR®tetra (Molecular Devices). Agonist at the human S1P receptors were characterized by deducing EC50 (potency) values from a nonlinear fit to the measured fluorescence raw data after normalization to the reference agonist (phospho-fingolimod) curve.

human S1PR1 = molecular target: T3, human S1PR1 (Homo sapiens, UniProt P21453); assay: Intracellular Ca2+ release (FLIPR) agonist potency, S1P1; settings: recombinant CHO-K1 cells expressing human S1PR1, aequorin, Gq/i5; Calcium 5 FLIPR; read-out: S1P1 EC50
T3 construct: host or cells: CHO-K1
Outline: as §1

human S1PR5 = molecular target: T4, human S1PR5 (Homo sapiens, UniProt Q9H228); assay: Intracellular Ca2+ release (FLIPR) agonist potency, S1P5; settings: recombinant CHO-K1 cells expressing human S1PR5, aequorin, Gq/i5; Calcium 5 FLIPR; read-out: S1P5 EC50 range
T4 construct: host or cells: CHO-K1
Outline: as §1

T3 sequence (P21453 whole entry): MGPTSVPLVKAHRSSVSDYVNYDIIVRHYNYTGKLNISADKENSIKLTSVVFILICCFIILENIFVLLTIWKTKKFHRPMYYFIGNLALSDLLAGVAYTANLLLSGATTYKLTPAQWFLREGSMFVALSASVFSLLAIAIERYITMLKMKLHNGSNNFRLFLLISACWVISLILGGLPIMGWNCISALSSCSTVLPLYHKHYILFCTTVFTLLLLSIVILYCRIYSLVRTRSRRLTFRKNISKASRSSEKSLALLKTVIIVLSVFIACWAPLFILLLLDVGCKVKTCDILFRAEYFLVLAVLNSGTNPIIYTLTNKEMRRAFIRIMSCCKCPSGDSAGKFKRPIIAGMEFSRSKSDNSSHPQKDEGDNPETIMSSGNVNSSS
T2 sequence (Q99500 whole entry): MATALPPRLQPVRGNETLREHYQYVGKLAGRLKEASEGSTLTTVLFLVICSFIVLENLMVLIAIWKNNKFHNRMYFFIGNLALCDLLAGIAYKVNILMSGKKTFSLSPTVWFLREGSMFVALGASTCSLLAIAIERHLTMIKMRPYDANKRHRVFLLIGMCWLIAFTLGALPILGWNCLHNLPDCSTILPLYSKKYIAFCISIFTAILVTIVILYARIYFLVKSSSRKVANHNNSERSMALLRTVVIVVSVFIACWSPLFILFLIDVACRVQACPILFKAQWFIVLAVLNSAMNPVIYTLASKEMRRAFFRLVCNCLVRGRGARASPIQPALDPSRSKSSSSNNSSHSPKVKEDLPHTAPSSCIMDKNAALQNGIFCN
T4 sequence (Q9H228 whole entry): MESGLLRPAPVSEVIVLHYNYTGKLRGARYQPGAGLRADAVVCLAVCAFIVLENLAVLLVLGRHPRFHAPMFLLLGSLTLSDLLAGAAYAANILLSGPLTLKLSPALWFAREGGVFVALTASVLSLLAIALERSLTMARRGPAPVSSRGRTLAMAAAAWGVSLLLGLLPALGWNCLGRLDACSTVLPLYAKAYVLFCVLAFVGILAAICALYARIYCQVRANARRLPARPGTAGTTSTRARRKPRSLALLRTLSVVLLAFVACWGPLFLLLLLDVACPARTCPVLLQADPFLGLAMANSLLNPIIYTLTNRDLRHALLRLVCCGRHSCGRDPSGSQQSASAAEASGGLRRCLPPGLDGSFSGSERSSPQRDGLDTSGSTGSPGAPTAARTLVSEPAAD

## O=C(O)C1CN(C2COc3cc(-c4ccc(OCc5ccc(Cl)cc5)cc4)ccc3C2)C1 (stereo not shown) [Compound 54, 1-(7-(4-((4-chlorobenzyl)oxy)phenyl)chroman-3-yl)azetidine-3-carboxylic acid]
Human S1PR4
  EC50: > 1000 nM
Human S1PR3
  EC50: > 1000 nM
Human S1PR1
  EC50: > 1000 nM
Human S1PR5
  EC50: < 10 nM

## O=C(O)COC1CCc2cc(OCc3cccc(C(F)(F)F)c3)ccc2C1 (stereo not shown) [Compound 213, 2-[6-[[3-(trifluoromethyl)phenyl]methoxy]tetralin-2-yl]oxyacetic acid]
Human S1PR4
  EC50: < 1000 nM
Human S1PR3
  EC50: > 1000 nM
Human S1PR1
  EC50: > 1000 nM
Human S1PR5
  EC50: 10 to 100 nM

## O=C(O)CCNC1CCc2cc(OCc3c(Cl)cccc3Cl)ccc2C1 (stereo not shown) [Compound 9, 3-((6-((2,6-dichlorobenzyl)oxy)-1,2,3,4-tetrahydronaphthalen-2-yl)amino)propanoic acid]
Human S1PR3
  EC50: > 1000 nM
Human S1PR1
  EC50: > 1000 nM
Human S1PR5
  EC50: < 10 nM

## O=C(O)C1CN(C2COc3cc(C#Cc4cccc(Cl)c4)ccc3C2)C1 (stereo not shown) [Compound 40, 1-(7-((3-chlorophenyl)ethynyl)chroman-3-yl)azetidine-3-carboxylic acid]
Human S1PR4
  EC50: < 1000 nM
Human S1PR3
  EC50: > 1000 nM
Human S1PR1
  EC50: > 1000 nM
Human S1PR5
  EC50: 10 to 100 nM

## O=C(O)C1CCN(CC2OCCc3cc(OCc4c(Cl)cccc4Cl)ccc32)CC1 (stereo not shown) [Compound 70, 1-((6-((2,6-dichlorobenzyl)oxy)isochroman-1-yl)methyl)piperidine-4-carboxylic acid]
Human S1PR4
  EC50: < 1000 nM
Human S1PR3
  EC50: > 1000 nM
Human S1PR1
  EC50: > 1000 nM
Human S1PR5
  EC50: 10 to 100 nM

## O=C(O)CCNC1CCc2ccc(OCc3c(Cl)cccc3Cl)cc2C1 (stereo not shown) [Compound 10, 3-((7-((2,6-dichlorobenzyl)oxy)-1,2,3,4-tetrahydronaphthalen-2-yl)amino)propanoic acid]
Human S1PR3
  EC50: > 1000 nM
Human S1PR1
  EC50: > 1000 nM
Human S1PR5
  EC50: 1000 to 10000 nM

## O=C(O)COC1CCc2cc(OCc3c(F)ccc(Cl)c3F)ccc2C1 (stereo not shown) [Compound 152, 2-[6-[(3-chloro-2,6-difluoro-phenyl)methoxy]tetralin-2-yl]oxyacetic acid]
Human S1PR4
  EC50: > 1000 nM
Human S1PR3
  EC50: > 1000 nM
Human S1PR1
  EC50: > 1000 nM
Human S1PR5
  EC50: < 10 nM

## Cc1cccc(C)c1COc1ccc2c(c1)CCC(OCC(=O)O)C2 (stereo not shown) [Compound 175, 2-[6-[(2,6-dimethylphenyl)methoxy]tetralin-2-yl]oxyacetic acid]
Human S1PR4
  EC50: > 1000 nM
Human S1PR3
  EC50: > 1000 nM
Human S1PR1
  EC50: > 1000 nM
Human S1PR5
  EC50: 10 to 100 nM

## CC(C)(C)c1ccc(COc2ccc3c(c2)CCC(OCC(=O)O)C3)cc1 (stereo not shown) [Compound 211, 2-[6-[(4-tert-butylphenyl)methoxy]tetralin-2-yl]oxyacetic acid]
Human S1PR4
  EC50: > 1000 nM
Human S1PR3
  EC50: > 1000 nM
Human S1PR1
  EC50: > 1000 nM
Human S1PR5
  EC50: 10 to 100 nM

## CCc1cccc(Cl)c1COc1ccc2c(c1)CCC(NCC(=O)NOC)C2 (stereo not shown) [Compound 218, 2-[[6-[(2-chloro-6-ethyl-phenyl)methoxy]tetralin-2-yl]amino]-N-methoxy-acetamide]
Human S1PR4
  EC50: > 1000 nM
Human S1PR3
  EC50: > 1000 nM
Human S1PR1
  EC50: > 1000 nM
Human S1PR5
  EC50: 100 to 1000 nM

## O=C(O)C1CN(C2COc3cc(C#Cc4c(F)cccc4F)ccc3C2)C1 (stereo not shown) [Compound 47, 1-(7-((2,6-difluorophenyl)ethynyl)chroman-3-yl)azetidine-3-carboxylic acid]
Human S1PR4
  EC50: < 1000 nM
Human S1PR3
  EC50: > 1000 nM
Human S1PR1
  EC50: > 1000 nM
Human S1PR5
  EC50: 10 to 100 nM

## CCc1cccc(Cl)c1COc1ccc2c(c1)CCC(NCC(=O)N(C)OC)C2 (stereo not shown) [Compound 216, 2-[[6-[(2-chloro-6-ethyl-phenyl)methoxy]tetralin-2-yl]amino]-N-methoxy-N-methyl-acetamide]
Human S1PR4
  EC50: > 1000 nM
Human S1PR3
  EC50: > 1000 nM
Human S1PR1
  EC50: > 1000 nM
Human S1PR5
  EC50: < 10 nM

## O=C(O)C1CN(C2CCc3cc(OCc4c(Cl)cccc4Cl)ccc3C2)C1 (stereo not shown) [Compound 4, 1-(6-((2,6-dichlorobenzyl)oxy)-1,2,3,4-tetrahydronaphthalen-2-yl)azetidine-3-carboxylic acid]
Human S1PR3
  EC50: > 1000 nM
Human S1PR1
  EC50: > 1000 nM
Human S1PR5
  EC50: < 10 nM

## CCc1cccc(Cl)c1COc1ccc2c(c1)CCC(NCCC(=O)O)C2 (stereo not shown) [Compound 6, 3-((6-((2-chloro-6-ethylbenzyl)oxy)-1,2,3,4-tetrahydronaphthalen-2-yl)amino)propanoic acid]
Human S1PR3
  EC50: > 1000 nM
Human S1PR1
  EC50: < 1000 nM
Human S1PR5
  EC50: < 10 nM

## O=C(O)CCNC1CCc2cc(OCc3ccc(Cl)cc3)ccc2C1 (stereo not shown) [Compound 11, 3-((6-((4-chlorobenzyl)oxy)-1,2,3,4-tetrahydronaphthalen-2-yl)amino) propanoic acid]
Human S1PR3
  EC50: > 1000 nM
Human S1PR1
  EC50: > 1000 nM
Human S1PR5
  EC50: 1000 to 10000 nM

## O=C(O)CCNC1CCc2cc(OCc3ccccc3)ccc2C1 (stereo not shown) [Compound 7, 3-((6-(benzyloxy)-1,2,3,4-tetrahydronaphthalen-2-yl)amino)propanoic acid]
Human S1PR3
  EC50: > 1000 nM
Human S1PR1
  EC50: > 1000 nM
Human S1PR5
  EC50: 10 to 100 nM

## O=C(O)COC1CCc2cc(OCc3c(F)cccc3F)ccc2C1 (stereo not shown) [Compound 159, 2-[6-[(2,6-difluorophenyl)methoxy]tetralin-2-yl]oxyacetic acid]
Human S1PR4
  EC50: > 1000 nM
Human S1PR1
  EC50: > 1000 nM
Human S1PR5
  EC50: 1000 to 10000 nM

## O=C(O)CCOC1CCc2cc(OCc3ccc(C(F)(F)F)cc3)ccc2C1 (stereo not shown) [Compound 183, 3-[6-[[4-(trifluoromethyl)phenyl]methoxy]tetralin-2-yl]oxypropanoic acid]
Human S1PR4
  EC50: > 1000 nM
Human S1PR1
  EC50: > 1000 nM
Human S1PR5
  EC50: 1000 to 10000 nM

## Cc1ccc(F)c(COc2ccc3c(c2)CCC(OCC(=O)O)C3)c1F (stereo not shown) [Compound 149, 2-[6-[(2,6-difluoro-3-methyl-phenyl)methoxy]tetralin-2-yl]oxyacetic acid]
Human S1PR4
  EC50: > 1000 nM
Human S1PR1
  EC50: > 1000 nM
Human S1PR5
  EC50: 1000 to 10000 nM

## Cc1cc2c(cc1OCc1c(Cl)cccc1Cl)OCC(N1CC(C(=O)O)C1)C2 (stereo not shown) [Compound 222, 1-[7-[(2,6-dichlorophenyl)methoxy]-6-methyl-chroman-3-yl]azetidine-3-carboxylic acid]
Human S1PR4
  EC50: > 1000 nM
Human S1PR1
  EC50: > 1000 nM
Human S1PR5
  EC50: 10 to 100 nM

## Cc1ccc(F)cc1COc1ccc2c(c1)CCC(OCC(=O)O)C2 (stereo not shown) [Compound 155, 2-[6-[(5-fluoro-2-methyl-phenyl)methoxy]tetralin-2-yl]oxyacetic acid]
Human S1PR4
  EC50: > 1000 nM
Human S1PR1
  EC50: > 1000 nM
Human S1PR5
  EC50: 1000 to 10000 nM

## COc1cccc(COc2ccc3c(c2)OCC(N2CC(C(=O)O)C2)C3)c1F (stereo not shown) [Compound 86, 1-[7-[(2-fluoro-3-methoxy-phenyl)methoxy]chroman-3-yl]azetidine-3-carboxylic acid]
Human S1PR4
  EC50: > 1000 nM
Human S1PR1
  EC50: > 1000 nM
Human S1PR5
  EC50: 1000 to 10000 nM

## COc1ccc(F)c(COc2ccc3c(c2)OCC(N2CC(C(=O)O)C2)C3)c1 (stereo not shown) [Compound 98, 1-[7-[(2-fluoro-5-methoxy-phenyl)methoxy]chroman-3-yl]azetidine-3-carboxylic acid]
Human S1PR4
  EC50: > 1000 nM
Human S1PR1
  EC50: > 1000 nM
Human S1PR5
  EC50: 1000 to 10000 nM

## CCc1cccc(Cl)c1COc1ccc2c(c1)OCC(OCC(=O)O)C2 (stereo not shown) [Compound 233, ((7-((2-chloro-6-ethylbenzyl)oxy)chroman-3-yl)oxy)acetic acid]
Human S1PR4
  EC50: > 1000 nM
Human S1PR1
  EC50: > 1000 nM
Human S1PR5
  EC50: < 10 nM

## O=C(O)COC1CCc2cc(OCc3cc(C(F)(F)F)ccc3Cl)ccc2C1 (stereo not shown) [Compound 151, 2-[6-[[2-chloro-5-(trifluoromethyl)phenyl]methoxy]tetralin-2-yl]oxyacetic acid]
Human S1PR4
  EC50: > 1000 nM
Human S1PR1
  EC50: > 1000 nM
Human S1PR5
  EC50: 1000 to 10000 nM

## O=C(O)C1CN(C2COc3cc(OCc4cc(Cl)ccc4Cl)ccc3C2)C1 (stereo not shown) [Compound 52, 1-(7-((2,5-dichlorobenzyl)oxy)chroman-3-yl)azetidine-3-carboxylic acid]
Human S1PR4
  EC50: > 1000 nM
Human S1PR1
  EC50: > 1000 nM
Human S1PR5
  EC50: 1000 to 10000 nM

## CCc1cccc(F)c1COc1ccc2c(c1)OCC(NC13CC(C(=O)O)(C1)C3)C2 (stereo not shown) [Compound 122, 3-((7-((2-ethyl-6-fluorobenzyl)oxy)chroman-3-yl)amino)bicyclo[1.1.1]pentane-1-carboxylic acid]
Human S1PR4
  EC50: < 1000 nM
Human S1PR1
  EC50: > 1000 nM
Human S1PR5
  EC50: 10 to 100 nM

## O=C(O)CCOC1CCc2cc(OCc3ccc(Cl)c(Cl)c3)ccc2C1 (stereo not shown) [Compound 181, 3-[6-[(3,4-dichlorophenyl)methoxy]tetralin-2-yl]oxypropanoic acid]
Human S1PR4
  EC50: > 1000 nM
Human S1PR1
  EC50: > 1000 nM
Human S1PR5
  EC50: 1000 to 10000 nM

## O=C(O)CCOC1CCc2cc(OCc3ccc(Cl)cc3)ccc2C1 (stereo not shown) [Compound 191, 3-[6-[(4-chlorophenyl)methoxy]tetralin-2-yl]oxypropanoic acid]
Human S1PR4
  EC50: > 1000 nM
Human S1PR1
  EC50: > 1000 nM
Human S1PR5
  EC50: 1000 to 10000 nM
